Data published in patent publication US20070049593A1 (priority 2004, published 2007).
Counter-ions that a name gives are not always drawn.

These molecules were tested against T1, HCV polymerase (Hepatitis C virus genotype 1b, UniProt P26663) (assay: biochemical).
T1 construct: a region encoding NS5B (J Virol 1991 March, 65(3), 1105-13, 544 amino acids after deletion of 47 amino acids on the C-terminal); 6xHis (C); made in house; host or cells: Escherichia coli
T1 sequence (P26663 2420-2963): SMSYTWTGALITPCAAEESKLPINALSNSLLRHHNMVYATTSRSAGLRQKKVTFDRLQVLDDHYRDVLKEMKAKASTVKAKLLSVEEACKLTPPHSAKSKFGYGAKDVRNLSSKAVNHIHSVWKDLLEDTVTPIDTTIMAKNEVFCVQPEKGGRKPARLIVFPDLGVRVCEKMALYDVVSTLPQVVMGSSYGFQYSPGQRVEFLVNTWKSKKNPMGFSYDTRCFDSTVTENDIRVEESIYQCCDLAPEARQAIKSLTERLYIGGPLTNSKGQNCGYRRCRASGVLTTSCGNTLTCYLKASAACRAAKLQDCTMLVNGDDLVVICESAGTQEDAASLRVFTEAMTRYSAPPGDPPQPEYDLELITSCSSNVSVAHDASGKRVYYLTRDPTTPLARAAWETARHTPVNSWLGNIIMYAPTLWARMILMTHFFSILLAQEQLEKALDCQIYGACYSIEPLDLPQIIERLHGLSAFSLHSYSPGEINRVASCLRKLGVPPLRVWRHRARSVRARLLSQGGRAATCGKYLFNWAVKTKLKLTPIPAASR
Set-up: species or system HCV BK strain
How it was run: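 Recombinant HCV BK-strain NS5B (C-terminal 47 aa deleted, His6-tagged, E. coli), 0.5 μg/ml, run with 5 μg/ml in vitro-transcribed RNA template (polyU/3′X), ATP/GTP/CTP 50 μM, UTP 2 μM plus [3H]UTP, pH 7.5, 25° C, 90 min. TCA-precipitated RNA counted by scintillation; IC50 from activity with vs without compound.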
For `O=C(O)c1ccc2c(C3CCCCC3)c3n(c2c1)CCN(CCN1CCCOCC1)c1cc(Cl)ccc1-3` [Example 1-169, 3-chloro-13-cyclohexyl-5-[2-(1,4-oxazepan-4-yl)ethyl]-6,7-dihydro-5H-benzo[5,6][1,4]diazepino[7,1-a]indole-10-carboxylic acid monohydrochloride], the IC50 was under 100 nM.
With `O=C(O)c1ccc2c(C3CCCCC3)c3n(c2c1)CCN(CCN1CCCOCC1)c1cc(F)ccc1-3` [Example 1-170, 13-cyclohexyl-3-fluoro-5-[2-(1,4-oxazepan-4-yl)ethyl]-6,7-dihydro-5H-benzo[5,6][1,4]diazepino[7,1-a]indole-10-carboxylic acid dihydrochloride] the IC50 was under 100 nM.
`O=C(O)c1ccc2c(C3CCCCC3)c3n(c2c1)CCN(CC(=O)N1CCC(F)(F)CC1)c1ccccc1-3` [Example 1-171, 13-cyclohexyl-5-[2-(4,4-difluoropiperidin-1-yl)-2-oxoethyl]-6,7-dihydro-5H-benzo[5,6][1,4]diazepino[7,1-a]indole-10-carboxylic acid monohydrochloride] showed an IC50 of under 100 nM.
`O=C(O)c1ccc2c(C3CCCCC3)c3n(c2c1)CCN(CCN1CCC(C(F)(F)F)CC1)c1ccccc1-3` [Example 1-172, 13-cyclohexyl-5-[2-(4-trifluoromethylpiperidin-1-yl)ethyl]-6,7-dihydro-5H-benzo[5,6][1,4]diazepino[7,1-a]indole-10-carboxylic acid dihydrochloride] showed an IC50 of under 100 nM.
With `CCCN1CCC(CCN2CCn3c(c(C4CCCCC4)c4ccc(C(=O)O)cc43)-c3ccccc32)CC1` [Example 1-173, 13-cyclohexyl-5-[2-(1-propylpiperidin-4-yl)ethyl]-6,7-dihydro-5H-benzo[5,6][1,4]diazepino[7,1-a]indole-10-carboxylic acid dihydrochloride] the IC50 was under 100 nM.
With `O=C(O)c1ccc2c(C3CCCCC3)c3n(c2c1)CCN(CCN1CCC(F)(F)CC1)c1ccccc1-3` [Example 1-174, 13-cyclohexyl-5-[2-(4,4-difluoropiperidin-1-yl)ethyl]-6,7-dihydro-5H-benzo[5,6][1,4]diazepino[7,1-a]indole-10-carboxylic acid dihydrochloride] the IC50 was under 100 nM.
Molecule `CCN1CCC(=C(F)CN2CCn3c(c(C4CCCCC4)c4ccc(C(=O)O)cc43)-c3ccccc32)CC1` [Example 1-175, 13-cyclohexyl-5-[2-(1-ethylpiperidin-4-ylidene)-2-fluoroethyl]-6,7-dihydro-5H-benzo[5,6][1,4]diazepino[7,1-a]indole-10-carboxylic acid dihydrochloride] has an IC50 of under 100 nM.
`O=C(O)c1ccc2c(C3CCCCC3)c3n(c2c1)CCN(CCN1CCCCC1)c1ccc(Cl)cc1-3` [Example 1-176, 2-chloro-13-cyclohexyl-5-[2-(piperidin-1-yl)ethyl]-6,7-dihydro-5H-benzo[5,6][1,4]diazepino[7,1-a]indole-10-carboxylic acid dihydrochloride] showed an IC50 of under 100 nM.
With `O=C(O)c1ccc2c(C3CCCCC3)c3n(c2c1)CCN(CCC1CCCCN1)c1ccccc1-3` (centres unmarked) [Example 1-177, 13-cyclohexyl-5-[2-(piperidin-2-yl)ethyl]-6,7-dihydro-5H-benzo[5,6][1,4]diazepino[7,1-a]indole-10-carboxylic acid dihydrochloride] the IC50 was under 100 nM.
Work on `CCN1CCCCC1CCN1CCn2c(c(C3CCCCC3)c3ccc(C(=O)O)cc32)-c2ccccc21` (centres unmarked) [Example 1-178, 13-cyclohexyl-5-[2-(1-ethylpiperidin-2-yl)ethyl]-6,7-dihydro-5H-benzo[5,6][1,4]diazepino[7,1-a]indole-10-carboxylic acid dihydrochloride] yielded an IC50 of under 100 nM.
For `CSc1ccc2c(c1)N(CCN1CCCCC1)CCn1c-2c(C2CCCCC2)c2ccc(C(=O)O)cc21` [Example 1-179, 13-cyclohexyl-3-methylsulfanyl-5-[2-(piperidin-1-yl)ethyl]-6,7-dihydro-5H-benzo[5,6][1,4]diazepino[7,1-a]indole-10-carboxylic acid dihydrochloride], the IC50 was under 100 nM.
